Experimental data taken from patent US12286442B2, “Methods and materials for increasing transcription factor eb polypeptide levels” (University of Pittsburgh—Of the Commonwealth System of …, priority 2019, dated 2025).

Legend:
TFEB = assay: High content screen measuring TFEB nuclear accumulation (TFEB nuclear/cytosol ratio) in BEAS-2B cells stably expressing TFEB-EGFP; assay type: cell-based, human; details: 18 hours incubation
Description: FIG. 3. High content screen assay (384 well) measuring TFEB nuclear accumulation. Approximately 2500 primary and immortalized human bronchial epithelial cells (BEAS-2B) stably expressing TFEB-EGFP in 25 μL of HITEs media with 10% FBS were dispensed into 384 well plate (Black with glass bottom) and incubated for 8 hours. Compound serial dilution (DMEM low glucose media with 2% FBS, 25 μL volume) were prepared using a robotic liquid hander. Compound solutions were then added to the cell plate and incubated for 18 hours. Cells were then fixed with 4% PFA followed by DAPI staining. TFEB localization was imaged on the GFP channel along with the DAPI signal using a Cytation 5 high content imager. Images were processed through Biotek Gen5 software; specifically, the DAPI signal was used as the primary mask to quantify the nuclear TFEB-GFP signal. The cytosolic TFEB-GFP signal was quantified through expanding the primary mask. The TFEB nuclear/cytosol ratios were calculated from nuclear TFEB-GFP signal/cytosol TFEB-GFP signal, which determined the compound efficacy. […] Compound activities (μM) were determined by the minimal compound concentration needed to increase TFEB nuclear/cytosol ratio by 25%. Activity: “−” equals >25 μM; “+” equals between 25 μM and >10 μM; “++” equals between ≤10 μM and >1 μM; and “+++” equals […]. N=4.
(§1) Approximately 2300 primary and immortalized human bronchial epithelial cells (BEAS-2B) stably expressing TFEB-EGFP in 25 μL of HITEs media with 10% FBS were dispensed into 384 well plate (Black with glass bottom) and incubated for 8 hours. Compound serial dilution (DMEM low glucose media with 2% FBS, 25 μL volume) were prepared using a robotic liquid hander. Compound solution were then added to the cell plate and incubated for 18 hours. Cells were then fixed with 4% PFA followed by DAPI staining. TFEB localization was imaged on the GFP channel along with the DAPI signal using a Cytation 5 high content imager. Images were processed through Biotek Gen5 software. Specifically, the DAPI signal was used as the primary mask to quantify the nuclear TFEB-GFP signal. Cytosolic TFEB-GFP signal was quantified through expanding the primary mask. The TFEB nuclear/cytosol ratios were calculated from nuclear TFEB-GFP signal/cytosol TFEB-GFP signal, which determined the compound efficacies.
Compounds efficacies (μM) were determined by the minimal compound concentration needed to increase TFEB nuclear/cytosol ratio by 25%. Activity: “+” equals >25 μM; “++” equals between ≤25 μM and >1 μM; and “+++” equals ≤1 μM.
A high-content imaging screen was conducted using Beas2B cells that stably express GFP-TFEB.

BEAS-2B cells = assay: Toxicity: compound concentration needed to induce greater than 50 percent of cell loss; assay type: cell-based, human; details: 18 hours incubation
Description: as §1
Toxicity was determined by determining the compound concentration needed to induce greater than 50 percent of cell loss. For toxicity, cell loss of greater than 50 percent at a concentration that equals or is greater than 25 μM was represented as cell loss of greater than 50 percent at a concentration less than 25 μM and greater than 1 μM was represented as and cell loss of greater than 50 percent at a concentration that equals or is less than 1 μM was represented as “+++.” The assay results for compounds 1-202, 214-248, 332, 333, and 352-402 are shown in Table A.

With `Cc1nc2cc(Nc3nc(-c4ccncc4)nc4ccccc34)ccc2[nH]1` [Compound 29] the “efficacy (minimal compound concentration needed to increase TFEB nuclear/cytosol ratio by 25%)” value (TFEB) was “++ (“++” equals between ≤25 μM and >1 μM)” and the “toxicity (compound concentration needed to induce greater than 50 percent of cell loss)” value (BEAS-2B cells) was “+ (cell loss of greater than 50 percent at a concentration that equals or is greater than 25 μM was represented as)”.

In the case of `Cc1cc2c(F)c(Nc3nc(-c4ccncc4)nc4ccccc34)ccc2[nH]1` [Compound 30], the “efficacy (minimal compound concentration needed to increase TFEB nuclear/cytosol ratio by 25%)” value (TFEB) is reported as “+++ (“+++” equals ≤1 μM)” and the “toxicity (compound concentration needed to induce greater than 50 percent of cell loss)” value (BEAS-2B cells) is reported as “+++ (cell loss of greater than 50 percent at a concentration that equals or is less than 1 μM was represented as “+++.”)”.

`Cn1ncc2cc(Nc3nc(-c4ccncc4)nc4ccccc34)ccc21` [Compound 31] was tested, and the “efficacy (minimal compound concentration needed to increase TFEB nuclear/cytosol ratio by 25%)” value (TFEB) was “+++ (“+++” equals ≤1 μM)” and the “toxicity (compound concentration needed to induce greater than 50 percent of cell loss)” value (BEAS-2B cells) was “+++ (cell loss of greater than 50 percent at a concentration that equals or is less than 1 μM was represented as “+++.”)”.

`Cn1ccc2ccc(Nc3nc(-c4ccncc4)nc4ccccc34)cc21` [Compound 32] was tested, and the “efficacy (minimal compound concentration needed to increase TFEB nuclear/cytosol ratio by 25%)” value (TFEB) was “+++ (“+++” equals ≤1 μM)” and the “toxicity (compound concentration needed to induce greater than 50 percent of cell loss)” value (BEAS-2B cells) was “+++ (cell loss of greater than 50 percent at a concentration that equals or is less than 1 μM was represented as “+++.”)”.

For `O=C1NC(=O)c2cc(Nc3nc(-c4ccncc4)nc4ccccc34)ccc21` [Compound 33], the “efficacy (minimal compound concentration needed to increase TFEB nuclear/cytosol ratio by 25%)” value (TFEB) was “+ (“+” equals >25 μM)” and the “toxicity (compound concentration needed to induce greater than 50 percent of cell loss)” value (BEAS-2B cells) was “+ (cell loss of greater than 50 percent at a concentration that equals or is greater than 25 μM was represented as)”.

In the case of `Cc1nc2ccc(Nc3nc(-c4ccncc4)nc4ccccc34)cc2o1` [Compound 34], the “efficacy (minimal compound concentration needed to increase TFEB nuclear/cytosol ratio by 25%)” value (TFEB) is reported as “+++ (“+++” equals ≤1 μM)” and the “toxicity (compound concentration needed to induce greater than 50 percent of cell loss)” value (BEAS-2B cells) is reported as “+ (cell loss of greater than 50 percent at a concentration that equals or is greater than 25 μM was represented as)”.

In the case of `c1ccc2c(Nc3ccc4c(c3)CCN4)nc(-c3ccncc3)nc2c1` [Compound 35], the “efficacy (minimal compound concentration needed to increase TFEB nuclear/cytosol ratio by 25%)” value (TFEB) is reported as “+++ (“+++” equals ≤1 μM)” and the “toxicity (compound concentration needed to induce greater than 50 percent of cell loss)” value (BEAS-2B cells) is reported as “++ (cell loss of greater than 50 percent at a concentration less than 25 μM and greater than 1 μM was represented as)”.

`Cc1nc2cc(Nc3nc(-c4ccncc4)nc4ccccc34)ccc2o1` [Compound 37] was tested, and the “efficacy (minimal compound concentration needed to increase TFEB nuclear/cytosol ratio by 25%)” value (TFEB) was “++ (“++” equals between ≤25 μM and >1 μM)” and the “toxicity (compound concentration needed to induce greater than 50 percent of cell loss)” value (BEAS-2B cells) was “+ (cell loss of greater than 50 percent at a concentration that equals or is greater than 25 μM was represented as)”.

In the case of `N#Cc1c[nH]c2ccc(Nc3nc(-c4ccncc4)nc4ccccc34)cc12` [Compound 38], the “efficacy (minimal compound concentration needed to increase TFEB nuclear/cytosol ratio by 25%)” value (TFEB) is reported as “+ (“+” equals >25 μM)” and the “toxicity (compound concentration needed to induce greater than 50 percent of cell loss)” value (BEAS-2B cells) is reported as “+ (cell loss of greater than 50 percent at a concentration that equals or is greater than 25 μM was represented as)”.

In the case of `O=c1[nH]c2ccc(Nc3nc(-c4ccncc4)nc4ccccc34)cc2[nH]1` [Compound 39], the “efficacy (minimal compound concentration needed to increase TFEB nuclear/cytosol ratio by 25%)” value (TFEB) is reported as “+ (“+” equals >25 μM)” and the “toxicity (compound concentration needed to induce greater than 50 percent of cell loss)” value (BEAS-2B cells) is reported as “+ (cell loss of greater than 50 percent at a concentration that equals or is greater than 25 μM was represented as)”.

In the case of `O=C1Cc2cc(Nc3nc(-c4ccncc4)nc4ccccc34)ccc2N1` [Compound 40], the “efficacy (minimal compound concentration needed to increase TFEB nuclear/cytosol ratio by 25%)” value (TFEB) is reported as “++ (“++” equals between ≤25 μM and >1 μM)” and the “toxicity (compound concentration needed to induce greater than 50 percent of cell loss)” value (BEAS-2B cells) is reported as “+ (cell loss of greater than 50 percent at a concentration that equals or is greater than 25 μM was represented as)”.

`c1ccc2c(Nc3ccc4c(c3)OCCN4)nc(-c3ccncc3)nc2c1` [Compound 41] was tested, and the “efficacy (minimal compound concentration needed to increase TFEB nuclear/cytosol ratio by 25%)” value (TFEB) was “++ (“++” equals between ≤25 μM and >1 μM)” and the “toxicity (compound concentration needed to induce greater than 50 percent of cell loss)” value (BEAS-2B cells) was “++ (cell loss of greater than 50 percent at a concentration less than 25 μM and greater than 1 μM was represented as)”.

`c1ccc2c(Nc3ccc4c(c3)NCCN4)nc(-c3ccncc3)nc2c1` [Compound 42] was tested, and the “efficacy (minimal compound concentration needed to increase TFEB nuclear/cytosol ratio by 25%)” value (TFEB) was “+++ (“+++” equals ≤1 μM)” and the “toxicity (compound concentration needed to induce greater than 50 percent of cell loss)” value (BEAS-2B cells) was “+ (cell loss of greater than 50 percent at a concentration that equals or is greater than 25 μM was represented as)”.

In the case of `Fc1cccc(Nc2nc(-c3ccncc3)cc3ccccc23)c1` [Compound 43], the “efficacy (minimal compound concentration needed to increase TFEB nuclear/cytosol ratio by 25%)” value (TFEB) is reported as “++ (“++” equals between ≤25 μM and >1 μM)” and the “toxicity (compound concentration needed to induce greater than 50 percent of cell loss)” value (BEAS-2B cells) is reported as “+ (cell loss of greater than 50 percent at a concentration that equals or is greater than 25 μM was represented as)”.

`c1ccc2c(Nc3ccc4[nH]ncc4c3)nc(N3CCOCC3)nc2c1` [Compound 44] was tested, and the “efficacy (minimal compound concentration needed to increase TFEB nuclear/cytosol ratio by 25%)” value (TFEB) was “+++ (“+++” equals ≤1 μM)” and the “toxicity (compound concentration needed to induce greater than 50 percent of cell loss)” value (BEAS-2B cells) was “+ (cell loss of greater than 50 percent at a concentration that equals or is greater than 25 μM was represented as)”.

`Cc1cnccc1-c1nc(Nc2ccc3[nH]ncc3c2)c2ccccc2n1` [Compound 45] was tested, and the “efficacy (minimal compound concentration needed to increase TFEB nuclear/cytosol ratio by 25%)” value (TFEB) was “+ (“+” equals >25 μM)” and the “toxicity (compound concentration needed to induce greater than 50 percent of cell loss)” value (BEAS-2B cells) was “+ (cell loss of greater than 50 percent at a concentration that equals or is greater than 25 μM was represented as)”.

For `Cc1cc(F)cc(Nc2nc(N3CCOCC3)nc3ccccc23)c1` [Compound 46], the “efficacy (minimal compound concentration needed to increase TFEB nuclear/cytosol ratio by 25%)” value (TFEB) was “+ (“+” equals >25 μM)” and the “toxicity (compound concentration needed to induce greater than 50 percent of cell loss)” value (BEAS-2B cells) was “+ (cell loss of greater than 50 percent at a concentration that equals or is greater than 25 μM was represented as)”.

`Fc1cc(-c2nc(Nc3ccc4[nH]ncc4c3)c3ccccc3n2)ccn1` [Compound 47] was tested, and the “efficacy (minimal compound concentration needed to increase TFEB nuclear/cytosol ratio by 25%)” value (TFEB) was “+++ (“+++” equals ≤1 μM)” and the “toxicity (compound concentration needed to induce greater than 50 percent of cell loss)” value (BEAS-2B cells) was “+++ (cell loss of greater than 50 percent at a concentration that equals or is less than 1 μM was represented as “+++.”)”.

With `c1ccc2c(Nc3ccc4[nH]ncc4c3)nc(-c3ccncc3)cc2c1` [Compound 48] the “efficacy (minimal compound concentration needed to increase TFEB nuclear/cytosol ratio by 25%)” value (TFEB) was “+ (“+” equals >25 μM)” and the “toxicity (compound concentration needed to induce greater than 50 percent of cell loss)” value (BEAS-2B cells) was “+ (cell loss of greater than 50 percent at a concentration that equals or is greater than 25 μM was represented as)”.

In the case of `c1ccc2c(Nc3ccc4[nH]ccc4c3)nc(-c3ccncc3)cc2c1` [Compound 49], the “efficacy (minimal compound concentration needed to increase TFEB nuclear/cytosol ratio by 25%)” value (TFEB) is reported as “+ (“+” equals >25 μM)” and the “toxicity (compound concentration needed to induce greater than 50 percent of cell loss)” value (BEAS-2B cells) is reported as “+ (cell loss of greater than 50 percent at a concentration that equals or is greater than 25 μM was represented as)”.

In the case of `c1ccc2c(Nc3ccc4[nH]ncc4c3)nc(N3CCNCC3)nc2c1` [Compound 50], the “efficacy (minimal compound concentration needed to increase TFEB nuclear/cytosol ratio by 25%)” value (TFEB) is reported as “+ (“+” equals >25 μM)” and the “toxicity (compound concentration needed to induce greater than 50 percent of cell loss)” value (BEAS-2B cells) is reported as “+ (cell loss of greater than 50 percent at a concentration that equals or is greater than 25 μM was represented as)”.

With `CC(=O)c1cc(F)cc(Nc2nc(-c3ccncc3)nc3ccccc23)c1` [Compound 51] the “efficacy (minimal compound concentration needed to increase TFEB nuclear/cytosol ratio by 25%)” value (TFEB) was “+ (“+” equals >25 μM)” and the “toxicity (compound concentration needed to induce greater than 50 percent of cell loss)” value (BEAS-2B cells) was “+ (cell loss of greater than 50 percent at a concentration that equals or is greater than 25 μM was represented as)”.

`CC(=O)c1cc(C)cc(Nc2nc(-c3ccncc3)nc3ccccc23)c1` [Compound 52] was tested, and the “efficacy (minimal compound concentration needed to increase TFEB nuclear/cytosol ratio by 25%)” value (TFEB) was “+ (“+” equals >25 μM)” and the “toxicity (compound concentration needed to induce greater than 50 percent of cell loss)” value (BEAS-2B cells) was “+ (cell loss of greater than 50 percent at a concentration that equals or is greater than 25 μM was represented as)”.

In the case of `Cc1cc(F)cc(Nc2nc(-c3ccncc3C)nc3ccccc23)c1` [Compound 53], the “efficacy (minimal compound concentration needed to increase TFEB nuclear/cytosol ratio by 25%)” value (TFEB) is reported as “+ (“+” equals >25 μM)” and the “toxicity (compound concentration needed to induce greater than 50 percent of cell loss)” value (BEAS-2B cells) is reported as “+ (cell loss of greater than 50 percent at a concentration that equals or is greater than 25 μM was represented as)”.

`Cc1cccc(Nc2nc(-c3ccncc3C)nc3ccccc23)c1` [Compound 54] was tested, and the “efficacy (minimal compound concentration needed to increase TFEB nuclear/cytosol ratio by 25%)” value (TFEB) was “+ (“+” equals >25 μM)” and the “toxicity (compound concentration needed to induce greater than 50 percent of cell loss)” value (BEAS-2B cells) was “+ (cell loss of greater than 50 percent at a concentration that equals or is greater than 25 μM was represented as)”.
